# Key:
# GLXMAW Soybean, Williams [1] = test: Preemergence herbicidal evaluation, GLXMAW; format: in vivo, Glycine max, (L.) Merr. cv Williams; parameters: scale not given here; details: preemergence
# Outline: (§1)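 Visual ratings were taken four to five weeks after application. Before that, cups sown with seed in potting soil received a spray of compound dissolved in aqueous acetone, equivalent to about 0.013 to 0.800 kg/ha, and stood on greenhouse benches under conventional care.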
# [2] = test system: TRZAWR Wheat, Winter, cv Riband; test: Preemergence herbicidal evaluation, TRZAWR; format: in vivo, Triticum aestivum; parameters: scale not given here; details: preemergence
# Outline: as §1
# AMBEL Ragweed, Common [3] = test: Preemergence herbicidal evaluation, AMBEL; format: in vivo, Ambrosia artemisifolia, L.; parameters: scale not given here; details: preemergence
# Outline: as §1
# ORYSAT Rice, Tebonnet [4] = test: Postemergence herbicidal evaluation, ORYSAT; format: in vivo, Oryza sativa, (L.); parameters: scale not given here; details: postemergence spray, rated about two-three weeks after treatment
# Outline: (§2)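 Two-week-old seedlings sprayed postemergence with compound in 80/20 acetone/water plus 1.0% methylated seed oil, at about 0.006–0.400 kg/ha, through a nozzle at 40 psi. Plants kept under greenhouse conditions and visually rated about two–three weeks after treatment; ratings from repeat tests averaged.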
# ECHOG Barnyardgrass [5] = test: Preemergence herbicidal evaluation, ECHOG; format: in vivo, Echinochloa crus-galli, (L.) Beau; parameters: scale not given here; details: preemergence
# Outline: as §1
# [6] = test system: TRZAWR Wheat, Winter, cv Riband; test: Postemergence herbicidal evaluation, TRZAWR; format: in vivo, Triticum aestivum; parameters: scale not given here; details: postemergence spray, rated about two-three weeks after treatment
# Outline: as §2
# [7] = test system: CHEAL Lambsquarters, Common; test: Postemergence herbicidal evaluation, CHEAL; format: in vivo, Chenopodium album, L.; parameters: scale not given here; details: postemergence spray, rated about two-three weeks after treatment
# Outline: as §2
# CASOB Sicklepod [8] = test: Postemergence herbicidal evaluation, CASOB; format: in vivo, Cassia obtusifolia, L.; parameters: scale not given here; details: postemergence spray, rated about two-three weeks after treatment
# Outline: as §2
# ZEAMX Corn, Field [9] = test: Postemergence herbicidal evaluation, ZEAMX; format: in vivo, Zea mays, L. (Sammel-Bezeichnung); parameters: scale not given here; details: postemergence spray, rated about two-three weeks after treatment
# Outline: as §2
# GLXMAW Soybean, Williams [10] = test: Postemergence herbicidal evaluation, GLXMAW; format: in vivo, Glycine max, (L.) Merr. cv Williams; parameters: scale not given here; details: postemergence spray, rated about two-three weeks after treatment
# Outline: as §2
# AMBEL Ragweed, Common [11] = test: Postemergence herbicidal evaluation, AMBEL; format: in vivo, Ambrosia artemisifolia, L.; parameters: scale not given here; details: postemergence spray, rated about two-three weeks after treatment
# Outline: as §2
# GALAP Galium [12] = test: Preemergence herbicidal evaluation, GALAP; format: in vivo, Galium aparine; parameters: scale not given here; details: preemergence
# Outline: as §1
# ABUTH Velvetleaf [13] = test: Postemergence herbicidal evaluation, ABUTH; format: in vivo, Abutilon theophrasti, Medic.; parameters: scale not given here; details: postemergence spray, rated about two-three weeks after treatment
# Outline: as §2
# ZEAMX Corn, Field [14] = test: Preemergence herbicidal evaluation, ZEAMX; format: in vivo, Zea mays, L. (Sammel-Bezeichnung); parameters: scale not given here; details: preemergence
# Outline: as §1
# ECHOG Barnyardgrass [15] = test: Postemergence herbicidal evaluation, ECHOG; format: in vivo, Echinochloa crus-galli, (L.) Beau; parameters: scale not given here; details: postemergence spray, rated about two-three weeks after treatment
# Outline: as §2
# [16] = test system: IPOHE Morningglory, Ivyleaf; test: Preemergence herbicidal evaluation, IPOHE; format: in vivo, Ipomoea hederacea, (L.) Jacq.; parameters: scale not given here; details: preemergence
# Outline: as §1
# [17] = test system: IPOHE Morningglory, Ivyleaf; test: Postemergence herbicidal evaluation, IPOHE; format: in vivo, Ipomoea hederacea, (L.) Jacq.; parameters: scale not given here; details: postemergence spray, rated about two-three weeks after treatment
# Outline: as §2
# CASOB Sicklepod [18] = test: Preemergence herbicidal evaluation, CASOB; format: in vivo, Cassia obtusifolia, L.; parameters: scale not given here; details: preemergence
# Outline: as §1
# ORYSAT Rice, Tebonnet [19] = test: Preemergence herbicidal evaluation, ORYSAT; format: in vivo, Oryza sativa, (L.); parameters: scale not given here; details: preemergence
# Outline: as §1
# [20] = test system: CHEAL Lambsquarters, Common; test: Preemergence herbicidal evaluation, CHEAL; format: in vivo, Chenopodium album, L.; parameters: scale not given here; details: preemergence
# Outline: as §1
# ABUTH Velvetleaf [21] = test: Preemergence herbicidal evaluation, ABUTH; format: in vivo, Abutilon theophrasti, Medic.; parameters: scale not given here; details: preemergence
# Outline: as §1
# SETVI Foxtail, Green [22] = test: Postemergence herbicidal evaluation, SETVI; format: in vivo, Setaria viridis, (L.) Beau; parameters: scale not given here; details: postemergence spray, rated about two-three weeks after treatment
# Outline: as §2
# SETVI Foxtail, Green [23] = test: Preemergence herbicidal evaluation, SETVI; format: in vivo, Setaria viridis, (L.) Beau; parameters: scale not given here; details: preemergence
# Outline: as §1
# GALAP Galium [24] = test: Postemergence herbicidal evaluation, GALAP; format: in vivo, Galium aparine; parameters: scale not given here; details: postemergence spray, rated about two-three weeks after treatment
# Outline: as §2
compound,measurement,setting,value
"COc1ccc(C)cc1-n1nnc2cc(F)c(-n3c(=O)cc(C(F)(F)F)n(C)c3=O)cc21 [Example 18, 3-[5-fluoro-1-(2-methoxy-5-methylphenyl)-1H-1,2,3-benzotriazol-6-yl]-1-methyl-6-(trifluoromethyl)-2,4(1H,3H)-pyrimidinedione]",GLXMAW herbicidal rating,"GLXMAW Soybean, Williams [1]; rate 0.016 kg/ha",3.0
same,GLXMAW herbicidal rating,"GLXMAW Soybean, Williams [1]; rate 0.032 kg/ha",4.5
same,GLXMAW herbicidal rating,"GLXMAW Soybean, Williams [1]; rate 0.062 kg/ha",7.5
same,GLXMAW herbicidal rating,"GLXMAW Soybean, Williams [1]; rate 0.125 kg/ha",9.0
same,TRZAWR herbicidal rating,[2]; rate 0.016 kg/ha,2.0
same,TRZAWR herbicidal rating,[2]; rate 0.032 kg/ha,3.0
same,TRZAWR herbicidal rating,[2]; rate 0.062 kg/ha,6.0
same,TRZAWR herbicidal rating,[2]; rate 0.125 kg/ha,7.0
same,AMBEL herbicidal rating,"AMBEL Ragweed, Common [3]; rate 0.016 kg/ha",4.0
same,AMBEL herbicidal rating,"AMBEL Ragweed, Common [3]; rate 0.032 kg/ha",6.0
same,AMBEL herbicidal rating,"AMBEL Ragweed, Common [3]; rate 0.062 kg/ha",9.0
same,AMBEL herbicidal rating,"AMBEL Ragweed, Common [3]; rate 0.125 kg/ha",8.0
same,Postemergence herbicidal rating ORYSAT,"ORYSAT Rice, Tebonnet [4]; 0.008 kg/ha",3.5
same,Postemergence herbicidal rating ORYSAT,"ORYSAT Rice, Tebonnet [4]; 0.016 kg/ha",4.0
same,Postemergence herbicidal rating ORYSAT,"ORYSAT Rice, Tebonnet [4]; 0.032 kg/ha",5.5
same,Postemergence herbicidal rating ORYSAT,"ORYSAT Rice, Tebonnet [4]; 0.062 kg/ha",5.5
same,ECHCG herbicidal rating,ECHOG Barnyardgrass [5]; rate 0.016 kg/ha,6.0
same,ECHCG herbicidal rating,ECHOG Barnyardgrass [5]; rate 0.032 kg/ha,8.0
same,ECHCG herbicidal rating,ECHOG Barnyardgrass [5]; rate 0.062 kg/ha,9.0
same,ECHCG herbicidal rating,ECHOG Barnyardgrass [5]; rate 0.125 kg/ha,9.0
same,melting point,,175 to 181 °C
same,Postemergence herbicidal rating TRZAWR,[6]; 0.008 kg/ha,3.5
same,Postemergence herbicidal rating TRZAWR,[6]; 0.016 kg/ha,4.5
same,Postemergence herbicidal rating TRZAWR,[6]; 0.032 kg/ha,5.5
same,Postemergence herbicidal rating TRZAWR,[6]; 0.062 kg/ha,4.5
same,Postemergence herbicidal rating CHEAL,[7]; 0.008 kg/ha,1.0
same,Postemergence herbicidal rating CHEAL,[7]; 0.016 kg/ha,7.0
same,Postemergence herbicidal rating CHEAL,[7]; 0.032 kg/ha,9.0
same,Postemergence herbicidal rating CHEAL,[7]; 0.062 kg/ha,9.0
same,Postemergence herbicidal rating CASOB,CASOB Sicklepod [8]; 0.008 kg/ha,0.0
same,Postemergence herbicidal rating CASOB,CASOB Sicklepod [8]; 0.016 kg/ha,7.0
same,Postemergence herbicidal rating CASOB,CASOB Sicklepod [8]; 0.032 kg/ha,6.0
same,Postemergence herbicidal rating CASOB,CASOB Sicklepod [8]; 0.062 kg/ha,7.0
same,Postemergence herbicidal rating ZEAMX,"ZEAMX Corn, Field [9]; 0.008 kg/ha",4.5
same,Postemergence herbicidal rating ZEAMX,"ZEAMX Corn, Field [9]; 0.016 kg/ha",5.5
same,Postemergence herbicidal rating ZEAMX,"ZEAMX Corn, Field [9]; 0.032 kg/ha",6.0
same,Postemergence herbicidal rating ZEAMX,"ZEAMX Corn, Field [9]; 0.062 kg/ha",6.0
same,Postemergence herbicidal rating GLXMAW,"GLXMAW Soybean, Williams [10]; 0.008 kg/ha",4.5
same,Postemergence herbicidal rating GLXMAW,"GLXMAW Soybean, Williams [10]; 0.016 kg/ha",4.5
same,Postemergence herbicidal rating GLXMAW,"GLXMAW Soybean, Williams [10]; 0.032 kg/ha",6.5
same,Postemergence herbicidal rating GLXMAW,"GLXMAW Soybean, Williams [10]; 0.062 kg/ha",6.0
same,Postemergence herbicidal rating AMBEL,"AMBEL Ragweed, Common [11]; 0.008 kg/ha",1.0
same,Postemergence herbicidal rating AMBEL,"AMBEL Ragweed, Common [11]; 0.016 kg/ha",6.0
same,Postemergence herbicidal rating AMBEL,"AMBEL Ragweed, Common [11]; 0.032 kg/ha",6.0
same,Postemergence herbicidal rating AMBEL,"AMBEL Ragweed, Common [11]; 0.062 kg/ha",9.0
same,GALAP herbicidal rating,GALAP Galium [12]; rate 0.032 kg/ha,1.0
same,GALAP herbicidal rating,GALAP Galium [12]; rate 0.062 kg/ha,5.0
same,GALAP herbicidal rating,GALAP Galium [12]; rate 0.125 kg/ha,9.0
same,Postemergence herbicidal rating ABUTH,ABUTH Velvetleaf [13]; 0.008 kg/ha,9.0
same,Postemergence herbicidal rating ABUTH,ABUTH Velvetleaf [13]; 0.016 kg/ha,9.0
same,Postemergence herbicidal rating ABUTH,ABUTH Velvetleaf [13]; 0.032 kg/ha,9.0
same,Postemergence herbicidal rating ABUTH,ABUTH Velvetleaf [13]; 0.062 kg/ha,9.0
same,ZEAMX herbicidal rating,"ZEAMX Corn, Field [14]; rate 0.016 kg/ha",5.0
same,ZEAMX herbicidal rating,"ZEAMX Corn, Field [14]; rate 0.032 kg/ha",5.0
same,ZEAMX herbicidal rating,"ZEAMX Corn, Field [14]; rate 0.062 kg/ha",7.0
same,ZEAMX herbicidal rating,"ZEAMX Corn, Field [14]; rate 0.125 kg/ha",8.5
same,Postemergence herbicidal rating ECHCG,ECHOG Barnyardgrass [15]; 0.008 kg/ha,0.0
same,Postemergence herbicidal rating ECHCG,ECHOG Barnyardgrass [15]; 0.016 kg/ha,2.0
same,Postemergence herbicidal rating ECHCG,ECHOG Barnyardgrass [15]; 0.032 kg/ha,2.0
same,Postemergence herbicidal rating ECHCG,ECHOG Barnyardgrass [15]; 0.062 kg/ha,4.0
same,IPOHE herbicidal rating,[16]; rate 0.016 kg/ha,7.5
same,IPOHE herbicidal rating,[16]; rate 0.032 kg/ha,9.0
same,IPOHE herbicidal rating,[16]; rate 0.062 kg/ha,8.0
same,IPOHE herbicidal rating,[16]; rate 0.125 kg/ha,9.0
same,Postemergence herbicidal rating IPOHE,[17]; 0.008 kg/ha,9.0
same,Postemergence herbicidal rating IPOHE,[17]; 0.016 kg/ha,9.0
same,Postemergence herbicidal rating IPOHE,[17]; 0.032 kg/ha,9.0
same,Postemergence herbicidal rating IPOHE,[17]; 0.062 kg/ha,9.0
same,CASOB herbicidal rating,CASOB Sicklepod [18]; rate 0.016 kg/ha,2.5
same,CASOB herbicidal rating,CASOB Sicklepod [18]; rate 0.032 kg/ha,0.0
same,CASOB herbicidal rating,CASOB Sicklepod [18]; rate 0.062 kg/ha,0.5
same,CASOB herbicidal rating,CASOB Sicklepod [18]; rate 0.125 kg/ha,5.0
same,ORYSAT herbicidal rating,"ORYSAT Rice, Tebonnet [19]; rate 0.016 kg/ha",3.0
same,ORYSAT herbicidal rating,"ORYSAT Rice, Tebonnet [19]; rate 0.032 kg/ha",6.0
same,ORYSAT herbicidal rating,"ORYSAT Rice, Tebonnet [19]; rate 0.062 kg/ha",6.0
same,ORYSAT herbicidal rating,"ORYSAT Rice, Tebonnet [19]; rate 0.125 kg/ha",6.0
same,CHEAL herbicidal rating,[20]; rate 0.016 kg/ha,9.0
same,CHEAL herbicidal rating,[20]; rate 0.032 kg/ha,9.0
same,CHEAL herbicidal rating,[20]; rate 0.062 kg/ha,9.0
same,CHEAL herbicidal rating,[20]; rate 0.125 kg/ha,9.0
same,ABUTH herbicidal rating,ABUTH Velvetleaf [21]; rate 0.016 kg/ha,6.0
same,ABUTH herbicidal rating,ABUTH Velvetleaf [21]; rate 0.032 kg/ha,9.0
same,ABUTH herbicidal rating,ABUTH Velvetleaf [21]; rate 0.062 kg/ha,9.0
same,ABUTH herbicidal rating,ABUTH Velvetleaf [21]; rate 0.125 kg/ha,9.0
same,Postemergence herbicidal rating SETVI,"SETVI Foxtail, Green [22]; 0.008 kg/ha",0.0
same,Postemergence herbicidal rating SETVI,"SETVI Foxtail, Green [22]; 0.016 kg/ha",5.0
same,Postemergence herbicidal rating SETVI,"SETVI Foxtail, Green [22]; 0.032 kg/ha",9.0
same,Postemergence herbicidal rating SETVI,"SETVI Foxtail, Green [22]; 0.062 kg/ha",9.0
same,SETVI herbicidal rating,"SETVI Foxtail, Green [23]; rate 0.016 kg/ha",9.0
same,SETVI herbicidal rating,"SETVI Foxtail, Green [23]; rate 0.032 kg/ha",9.0
same,SETVI herbicidal rating,"SETVI Foxtail, Green [23]; rate 0.062 kg/ha",9.0
same,SETVI herbicidal rating,"SETVI Foxtail, Green [23]; rate 0.125 kg/ha",9.0
same,Postemergence herbicidal rating GALAP,GALAP Galium [24]; 0.008 kg/ha,1.0
same,Postemergence herbicidal rating GALAP,GALAP Galium [24]; 0.016 kg/ha,3.0
same,Postemergence herbicidal rating GALAP,GALAP Galium [24]; 0.032 kg/ha,5.0
same,Postemergence herbicidal rating GALAP,GALAP Galium [24]; 0.062 kg/ha,5.0

# — patent publication US20020111274A1, “1-alkyl-3-[1-(substituted phenyl) benzotriazol-6-yl] uracils” (BASF Aktiengesellschaft, priority 2000, published 2002)
